The record followed here is patent publication US6054474A, “Heterocyclic compounds for the treatment of pain and use thereof” (Biochem Pharma, Inc., priority 1995, dated 2000).

Molecules are shown by their SMILES.

The subject of test [1] is mice. The experiment in a line: Hot Plate Assay in mice. Format: in vivo. As to the method: (§1) Antinociceptive activity of compounds of the invention was determined in vivo in a PBQ writhing model and in the hot plate test in rodents. Inhibition of PBQ (phenyl-.rho.-benzoquinone) induced writhing in mice is an assessment of both central and peripherally-mediated analgesia. For experimental protocol see Sigmund et al., Proc. Soc. Ex. Biol. Med., 95, p. 729 (1957) which is incorporated herein by reference. Centrally-mediated analgesia was determined by the inhibition of a hot plate response in mice. For experimental protocol see G. Woolfe and A. Macdonald, J. Pharmacol. Exp. Ther., 80, p. 300 ([…]) which is incorporated herein by reference. Assays measuring opioid receptor binding affinities for μ, δ and κ receptors as well as GPI and MVD assays were determined through experimental protocol set out in Schiller et al., Biophys. Res. Commun., 85, p. 1322 (1975); Rothman et al, Peptides, Vol 11, pp 311-331, 1990; Kaffa et al, Peptides 15(3), 401-404, 1994; Fowler et al, Neurochem. Int 24(5), 401-426, 1994; and Leslie F., Pharmacological Review 39(3), 197-249, 1987 incorporated herein by reference.
For this test, CD #1 male mice (Charles River) weighing between 20-25 grams were used. The mice were weighed, identified, and randomized into groups of 10.
The mice were usually treated by subcutaneous injection of the compound (or the standard or vehicle) or by oral gavage.
The mice were evaluated individually for a latency reaction time on the hot plate. The temperature of the hot plate (Sorel, model DS37) was set at 55° C. […] The reaction time was recorded when one of these signs was noted. The cut off for latency response was 15 seconds so as to prevent damage to the paw tissue. […] The time intervals are typically 30, 60 or 120 minutes (or other).
For each time reading, the average reaction time of the control group was multiplied by 1.5. The reaction time of each treated animal was compared to the "control average×1.5".
In general terms: Thermal pain tests record how soon the animal reacts.

In test [2] the test system is mice. The experiment in a line: Phenylquinone (PBQ) Writhing Assay. Format: in vivo. The method, then:
as §1
Phenylquinone Writhing Assay
The test was performed using CD #1 male mice (Charles River) weighing between 19 and 25 g. Animals were maintained in constant conditions of light, temperature and humidity. The animals were acclimatized for three days prior to experimentation. […]
A general note: In writhing tests, fewer writhes than in controls are read as antinociception.

`CC12CCCCSC(Cc3ccc(O)cc31)C2N` (centres unmarked) [compound #9, 5,6,7,8,9,11,12-heptahydro-3-hydroxy-5-methyl-10-thia-5,11 methanobenzocyclodecen-13-amine]: the latency response time entry in test [1] (2.5 mg/kg, subcutaneous, after 15 minutes (FIG. 1)) was “almost maximum”. Besides, in test [1] (5 mg/kg, subcutaneous (FIG. 1), control approximately 7 seconds), the reaction time result was “about 19 seconds”. In addition, the “latency response to radiant heat, dose dependence” value in test [1] (subcutaneous (FIG. 1)) was “dose dependent latency response”. For the same compound, the “inhibition of the writhing response (PBQ)” value in test [2] (oral administration one hour prior to PBQ (FIG. 2)) and in test [2] (s.c. administration twenty minutes prior to PBQ (FIG. 3)) was “dose-dependent inhibition” throughout.
